Reference: PubChem BioAssay (NCI)
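Values below derive from 48-hour exposures of cells grown in 96-well plates, with endpoints linearly interpolated between the two concentrations bracketing the appropriate inhibition level. The concentration for full growth arrest is given as TGI.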

Experiments:
Assay in all cases: NCI anticancer screen, dose series, 48 h
786-0 renal = system: 786-0 renal
A549 NSCLC = system: A549 NSCLC
ACHN renal = system: ACHN renal
BT-549 breast = system: BT-549 breast
COLO 205 colon = system: COLO 205 colon
DU-145 prostate = system: DU-145 prostate
EKVX NSCLC = system: EKVX NSCLC
HCC-2998 colon = system: HCC-2998 colon
HCT-116 colon = system: HCT-116 colon
HCT-15 colon = system: HCT-15 colon
HL-60(TB) leukemia = system: HL-60(TB) leukemia
HOP-62 NSCLC = system: HOP-62 NSCLC
HOP-92 NSCLC = system: HOP-92 NSCLC
HS 578T breast = system: HS 578T breast
HT29 colon = system: HT29 colon
IGROV1 ovarian = system: IGROV1 ovarian
KM12 colon = system: KM12 colon
M14 melanoma = system: M14 melanoma
MALME-3M melanoma = system: MALME-3M melanoma
MCF7 breast = system: MCF7 breast
MDA-MB-231 breast = system: MDA-MB-231 breast
MDA-MB-435 = system: MDA-MB-435
MDA-N = system: MDA-N
MOLT-4 leukemia = system: MOLT-4 leukemia
NCI-H226 lung = system: NCI-H226 lung
NCI-H23 lung = system: NCI-H23 lung
NCI-H460 lung = system: NCI-H460 lung
NCI-H522 lung = system: NCI-H522 lung
NCI/ADR-RES ovarian = system: NCI/ADR-RES ovarian
OVCAR-3 ovarian = system: OVCAR-3 ovarian
OVCAR-4 ovarian = system: OVCAR-4 ovarian
OVCAR-5 ovarian = system: OVCAR-5 ovarian
OVCAR-8 ovarian = system: OVCAR-8 ovarian
PC-3 prostate = system: PC-3 prostate
RPMI-8226 leukemia = system: RPMI-8226 leukemia
RXF 393 renal = system: RXF 393 renal
SF-268 CNS = system: SF-268 CNS
SF-295 CNS = system: SF-295 CNS
SF-539 CNS = system: SF-539 CNS
SK-MEL-28 melanoma = system: SK-MEL-28 melanoma
SN12C renal = system: SN12C renal
SNB-19 CNS = system: SNB-19 CNS
SNB-75 CNS = system: SNB-75 CNS
SR leukemia = system: SR leukemia
SW-620 colon = system: SW-620 colon
T-47D breast = system: T-47D breast
TK-10 renal = system: TK-10 renal
U251 CNS = system: U251 CNS
UACC-257 melanoma = system: UACC-257 melanoma
UACC-62 melanoma = system: UACC-62 melanoma
A498 renal = system: A498 renal
CAKI-1 renal = system: CAKI-1 renal
CCRF-CEM leukemia = system: CCRF-CEM leukemia
K-562 leukemia = system: K-562 leukemia
SK-MEL-2 melanoma = system: SK-MEL-2 melanoma
SK-MEL-5 melanoma = system: SK-MEL-5 melanoma
SK-OV-3 ovarian = system: SK-OV-3 ovarian
UO-31 renal = system: UO-31 renal

O=C(NC1=C(Cl)C(=O)c2ccccc2C1=O)c1ccc(F)cc1
TGI (786-0 renal): > 100 µM | TGI (A549 NSCLC): > 100 µM | TGI (ACHN renal): 4.85 µM | TGI (BT-549 breast): 14.7 µM | TGI (COLO 205 colon): 8.33 µM | TGI (DU-145 prostate): 18.3 µM | TGI (EKVX NSCLC): 78.9 µM | TGI (HCC-2998 colon): 15.1 µM | TGI (HCT-116 colon): 10.6 µM | TGI (HCT-15 colon): 14.8 µM | TGI (HL-60(TB) leukemia): > 100 µM | TGI (HOP-62 NSCLC): 26.8 µM | TGI (HOP-92 NSCLC): 3.34 µM | TGI (HS 578T breast): 64.7 µM | TGI (HT29 colon): 11.5 µM | TGI (IGROV1 ovarian): 11.5 µM | TGI (KM12 colon): 12.5 µM | TGI (M14 melanoma): 12.5 µM | TGI (MALME-3M melanoma): 3.73 µM | TGI (MCF7 breast): 17.1 µM | TGI (MDA-MB-231 breast): 18.9 µM | TGI (MDA-MB-435): 14.2 µM | TGI (MDA-N): 12.9 µM | TGI (MOLT-4 leukemia): 7.13 µM | TGI (NCI-H226 lung): 8.37 µM | TGI (NCI-H23 lung): 13.7 µM | TGI (NCI-H460 lung): 10.6 µM | TGI (NCI-H522 lung): 1.84 µM | TGI (NCI/ADR-RES ovarian): 14.8 µM | TGI (OVCAR-3 ovarian): 12.3 µM | TGI (OVCAR-4 ovarian): 20 µM | TGI (OVCAR-5 ovarian): 16.5 µM | TGI (OVCAR-8 ovarian): 19.3 µM | TGI (PC-3 prostate): 10.7 µM | TGI (RPMI-8226 leukemia): > 100 µM | TGI (RXF 393 renal): 5.4 µM | TGI (SF-268 CNS): 38.9 µM | TGI (SF-295 CNS): 13.8 µM | TGI (SF-539 CNS): 18.7 µM | TGI (SK-MEL-28 melanoma): 18.4 µM | TGI (SN12C renal): 14.5 µM | TGI (SNB-19 CNS): 17.3 µM | TGI (SNB-75 CNS): 22.1 µM | TGI (SR leukemia): > 100 µM | TGI (SW-620 colon): 2.51 µM | TGI (T-47D breast): 4.93 µM | TGI (TK-10 renal): 14.6 µM | TGI (U251 CNS): 12.2 µM | TGI (UACC-257 melanoma): 7.43 µM | TGI (UACC-62 melanoma): 2.85 µM

Cc1cc(S(=O)(=O)Nc2nc3ccccc3nc2-c2cccc([N+](=O)[O-])c2)c(S)cc1Cl
TGI (786-0 renal): 45.6 µM | TGI (A498 renal): 29.1 µM | TGI (A549 NSCLC): 38 µM | TGI (ACHN renal): 64.3 µM | TGI (BT-549 breast): 72.8 µM | TGI (CAKI-1 renal): 39.4 µM | TGI (CCRF-CEM leukemia): 75.7 µM | TGI (COLO 205 colon): 31.5 µM | TGI (DU-145 prostate): 36.8 µM | TGI (EKVX NSCLC): 54.4 µM | TGI (HCC-2998 colon): 39.1 µM | TGI (HCT-116 colon): 35.2 µM | TGI (HCT-15 colon): > 100 µM | TGI (HL-60(TB) leukemia): 44.4 µM | TGI (HOP-62 NSCLC): 39.2 µM | TGI (HOP-92 NSCLC): 46.5 µM | TGI (HS 578T breast): 73.4 µM | TGI (HT29 colon): 34.2 µM | TGI (IGROV1 ovarian): 30.4 µM | TGI (K-562 leukemia): > 100 µM | TGI (KM12 colon): 31.3 µM | TGI (M14 melanoma): 35.1 µM | TGI (MALME-3M melanoma): 37.3 µM | TGI (MCF7 breast): 64.5 µM | TGI (MDA-MB-231 breast): > 100 µM | TGI (MDA-MB-435): 41 µM | TGI (MDA-N): 46.2 µM | TGI (MOLT-4 leukemia): 73.5 µM | TGI (NCI-H226 lung): 44.5 µM | TGI (NCI-H23 lung): 33.7 µM | TGI (NCI-H460 lung): 35.3 µM | TGI (NCI-H522 lung): 38.9 µM | TGI (NCI/ADR-RES ovarian): 48.3 µM | TGI (OVCAR-3 ovarian): 30.6 µM | TGI (OVCAR-4 ovarian): 66.8 µM | TGI (OVCAR-5 ovarian): 88.4 µM | TGI (OVCAR-8 ovarian): 80.9 µM | TGI (PC-3 prostate): 50.8 µM | TGI (RPMI-8226 leukemia): 64.7 µM | TGI (RXF 393 renal): 74.4 µM | TGI (SF-268 CNS): 56.2 µM | TGI (SF-295 CNS): 59.8 µM | TGI (SF-539 CNS): 38.1 µM | TGI (SK-MEL-2 melanoma): 42.2 µM | TGI (SK-MEL-28 melanoma): 32.9 µM | TGI (SK-MEL-5 melanoma): 28.4 µM | TGI (SK-OV-3 ovarian): 34 µM | TGI (SN12C renal): 78.5 µM | TGI (SNB-19 CNS): 39.9 µM | TGI (SR leukemia): 47.4 µM | TGI (T-47D breast): 38.9 µM | TGI (TK-10 renal): > 100 µM | TGI (U251 CNS): 38.6 µM | TGI (UACC-257 melanoma): 36 µM | TGI (UACC-62 melanoma): 31.8 µM | TGI (UO-31 renal): 46.1 µM
